Experimental data taken from patent publication US20100256214A1, “EPH RECEPTOR LIGANDS AND METHODS OF USE” (Burnham Institute for Medical Research, priority 2009, published 2010).

Assays:
EphB2 = EphB2 tyrosine phosphorylation in COS7 cells; assay type: cell-based; conditions: COS7 cells stimulated with ephrin-B2 Fc
EphA4 = EphA4 (Mus musculus, UniProt Q03137); experiment: ELISA, EphA4 AP binding to immobilized biotinylated KYL peptide; parameters: made in house; conditioned culture medium used
Procedure: Chemical Library Screening for EphA4 Inhibitors—A 96-well format in vitro assay was used for compound screening. Polystyrene high binding capacity plates (Corning, Corning, N.Y.) were incubated overnight at 4° C. with 2 μg/mL streptavidin (Pierce Biotecnology, Rockford, Ill.) diluted in borate buffer 0.1 M pH 8.7 and then coated by overnight incubation with 0.1 μM of biotinylated KYL peptide (Murai et al. (2003) Mol Cell Neurosci 24(4), 1000-1011) in binding buffer (Tris-buffered saline (TBS; 150 mM NaCl, 50 mM Tris-HCl, pH 7.5) with 1 mM CaCl2 and 0.01% Tween 20). Compounds were added to the wells at 10 μg/mL in 100% dimethylsulfoxide (DMSO) together with EphA4 alkaline phosphatase fusion protein (EphA4 AP) produced from transfected cells. Cell culture medium containing the secreted EphA4 AP was diluted 1:16 in binding buffer. The mixture was incubated for 3 hours at room temperature before washing with binding buffer and adding p-nitrophenylphosphate (pNPP) (Pierce Biotecnology, Rockford, Ill.) as the substrate. After 1 hour the reaction was stopped by adding 2N NaOH and the absorbance at 405 nm was measured using an ELISA plate reader Alkaline phosphatase activity from wells where alkaline phosphatase (AP) was added instead of EphA4 AP was subtracted as background. The inhibitory activity of the compounds was calculated by dividing the absorbance observed in the presence of each compound and the absorbance from wells where no compound was added. Compounds with inhibitory activity higher than 50% were considered hits.

COS and HT22 cells = experiment: Overall tyrosine phosphorylation in COS and HT22 cells; assay type: cell-based
Procedure: Measurement of Receptor Tyrosine Phosphorylation in Cells—HT22 neuronal cells, which endogenously express EphA4, are derived from immortalized mouse hippocampal neurons (Li et al. (1997) Neuron 19(2), 453-463). COST cells, which endogenously express EphA2, EphB2 and the EGF receptor (EGFR), were obtained from ATCC. Both cell lines were grown in Dulbecco's Modified Eagle's Medium (DMEM) (Mediatech, Inc, Herndon, Va.) with 10% fetal bovine serum (FBS) (Hyclone, Logan, Utah) and Pen/Strep. For EphA4 immunoprecipitations, HT22 cells were serum-starved overnight in 0.5% FBS in DMEM and incubated for 15 min with the compounds or DMSO as a control. The cells were then stimulated with 0.5 μg/mL ephrin-A5 Fc, ephrin-A4 Fc or Fc for 20 min in the continued presence of the compounds. After stimulation the cells were lysed in modified RIPA buffer (1% Triton X-100, 1% Na deoxycholate; 0.1% SDS; 20 mM Tris; 150 mM NaCl; 1 mM EDTA) containing […], 1 μM sodium pervanadate and protease inhibitors. The protein concentration was calculated using the BCA protein assay kit (Pierce Biotecnology, Rockford, Ill.). Cell lysates were immunoprecipitated with 4 μg anti-EphA4 antibody (Soans et al. (1994) Oncogene 9(11), 3353-3361). For EphA2 and EphB2 immunoprecipitations, serum-starved COS7 cells were stimulated with 0.1 μg/mL ephrin-A1 Fc or 0.5 μg/mL ephrin-B2 Fc, respectively. […]

Sequence of EphA4 (Q03137 20-547 limits assumed): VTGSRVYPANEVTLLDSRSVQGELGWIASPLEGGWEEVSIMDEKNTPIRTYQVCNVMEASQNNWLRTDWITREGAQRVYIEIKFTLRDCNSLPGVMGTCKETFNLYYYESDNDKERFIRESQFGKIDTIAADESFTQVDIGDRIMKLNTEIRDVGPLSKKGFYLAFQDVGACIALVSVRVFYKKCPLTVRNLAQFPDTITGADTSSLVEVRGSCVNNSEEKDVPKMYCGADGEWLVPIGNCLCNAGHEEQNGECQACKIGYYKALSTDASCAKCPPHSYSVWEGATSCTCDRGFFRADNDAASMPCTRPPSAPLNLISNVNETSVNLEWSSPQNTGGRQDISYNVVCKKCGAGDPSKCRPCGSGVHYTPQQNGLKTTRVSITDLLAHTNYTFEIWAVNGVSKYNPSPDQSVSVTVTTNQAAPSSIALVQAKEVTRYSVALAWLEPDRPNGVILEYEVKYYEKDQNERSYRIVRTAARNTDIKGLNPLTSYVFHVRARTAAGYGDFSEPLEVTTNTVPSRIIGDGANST

Structure (SMILES)	phosphorylation of endogenous EphB2 (EphB2)	inhibition of EphA4-KYL peptide binding (in words) (EphA4)	overall tyrosine phosphorylation (COS and HT22 cells)	IC50 (EphA4; read-out: IC50 for inhibition of EphA4 AP binding to KYL peptide)
Cc1ccc(C)n1-c1ccc(C(=O)O)c(O)c1 [compound 1, 4-(2,5-dimethyl-pyrrol-1-yl)-2-hydroxy-benzoic acid]	did not inhibit	inhibit	did not inhibit	
Cc1ccc(C)n1-c1ccc(O)c(C(=O)O)c1 [compound 2, 5-(2,5 dimethyl-pyrrol-1-yl)-2-hydroxy-benzoic acid]	did not inhibit	inhibit	did not inhibit	3 µM
